# Measurements published in ChEMBL document CHEMBL5214965, “Synthesis and antidepressant activity of novel 1-(1-benzoylpiperidin-4-yl) methanamine derivatives selectively targeting SSRI/5-HT1A” (Bioorg Med Chem Lett, 2022).
# Activity calls are given as the source filed them. The rule behind the calls is not given here.
# What was measured:
# [1] = molecular target: Sodium-dependent serotonin transporter (Rattus norvegicus) (UniProt P31652); experiment: Inhibition of serotonin transporter in rat brain tissue assessed as inhibition of [3H]-5-hydroxytryptamine reuptake at 1 uM relative to control; assay type: tissue-based
# Sequence of Sodium-dependent serotonin transporter (Rattus norvegicus) (P31652 whole entry): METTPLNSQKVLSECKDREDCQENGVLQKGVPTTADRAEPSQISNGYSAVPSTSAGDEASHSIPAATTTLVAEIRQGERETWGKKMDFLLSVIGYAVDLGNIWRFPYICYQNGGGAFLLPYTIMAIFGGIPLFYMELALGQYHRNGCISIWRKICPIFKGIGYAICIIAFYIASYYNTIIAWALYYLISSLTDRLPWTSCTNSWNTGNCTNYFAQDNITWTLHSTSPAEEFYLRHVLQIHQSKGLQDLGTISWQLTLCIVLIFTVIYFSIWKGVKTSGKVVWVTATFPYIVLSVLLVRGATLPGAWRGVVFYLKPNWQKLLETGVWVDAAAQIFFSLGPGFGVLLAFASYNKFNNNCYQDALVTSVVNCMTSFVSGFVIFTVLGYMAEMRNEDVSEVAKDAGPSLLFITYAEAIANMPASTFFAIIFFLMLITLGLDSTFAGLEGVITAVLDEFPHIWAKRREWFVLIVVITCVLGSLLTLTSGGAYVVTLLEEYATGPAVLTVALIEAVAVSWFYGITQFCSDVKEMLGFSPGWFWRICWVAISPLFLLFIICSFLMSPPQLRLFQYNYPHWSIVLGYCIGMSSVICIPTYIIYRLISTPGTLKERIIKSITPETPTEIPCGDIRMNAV
# [2] = molecular target: T1, 5-hydroxytryptamine receptor 1A (Homo sapiens) (UniProt P08908); experiment: Displacement of [3H][…] from 5-HT1A receptor in human HEK293 cells at 1 uM measured after 60 mins by scintillation counting method relative to control; assay type: cell-based
# T1 sequence (whole entry): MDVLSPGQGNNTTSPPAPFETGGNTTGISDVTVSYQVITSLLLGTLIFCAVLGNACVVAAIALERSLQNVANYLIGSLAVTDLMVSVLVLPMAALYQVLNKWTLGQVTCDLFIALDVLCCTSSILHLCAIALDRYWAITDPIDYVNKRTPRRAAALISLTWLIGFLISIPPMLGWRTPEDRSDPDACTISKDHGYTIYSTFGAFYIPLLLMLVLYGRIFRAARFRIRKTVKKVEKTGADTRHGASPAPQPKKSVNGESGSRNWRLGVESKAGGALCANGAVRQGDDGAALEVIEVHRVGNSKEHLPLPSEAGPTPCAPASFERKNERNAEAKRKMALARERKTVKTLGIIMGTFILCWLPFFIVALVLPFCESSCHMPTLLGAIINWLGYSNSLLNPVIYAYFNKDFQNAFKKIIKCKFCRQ
# [3] = molecular target: Sodium-dependent serotonin transporter (Rattus norvegicus, UniProt P31652); experiment: Inhibition of serotonin transporter in rat brain tissue assessed as inhibition of [3H]-5-hydroxytryptamine reuptake; assay type: tissue-based
# Sequence of Sodium-dependent serotonin transporter (P31652 whole entry): as the sequence (P31652 whole entry) above
# [4] = molecular target: T2, 5-hydroxytryptamine receptor 1A (Homo sapiens, UniProt P08908); experiment: Displacement of [3H][…] from 5-HT1A receptor in human HEK293 cells measured after 60 mins by scintillation counting method; assay type: cell-based
# T2 sequence (P08908 whole entry): T1 sequence (whole entry)
# [5] = in vitro; conditions: human, liver microsomes
# [6] = in vitro; conditions: human, liver microsomes; remark: listed apart in the source
# Description: Metabolic stability in human liver microsomes assessed as clearance
# [7] = in vitro; conditions: mouse, liver microsomes
# Description: Metabolic stability in mouse liver microsomes assessed as half life
# [8] = in vitro; conditions: mouse, liver microsomes; remark: listed apart in the source
# Description: Metabolic stability in mouse liver microsomes assessed as clearance
# [9] = system: Mus musculus; experiment: Antidepressant activity in ICR mouse assessed as reduction in immobility time at 0.6 mg/kg, po for 7 days by tail suspension test; assay type: functional; design: scale not given: the % may be the effect or the level left; conditions: time 7 day
# [10] = system: Mus musculus; experiment: Antidepressant activity in ICR mouse assessed as reduction in immobility time at 10 mg/kg, po for 7 days by tail suspension test; assay type: functional; design: scale not given: the % may be the effect or the level left; conditions: time 7 day
# [11] = system: Mus musculus; experiment: Antidepressant activity in ICR mouse assessed as reduction in immobility time at 0.6 mg/kg, po for 7 days by forced swimming test; assay type: functional; design: scale not given: the % may be the effect or the level left; conditions: time 7 day
# [12] = Binding affinity to 5-HT6 receptor (unknown origin) assessed as inhibition constant; design: species or system Homo sapiens
# [13] = molecular target: 5-hydroxytryptamine receptor 1B (Homo sapiens) (UniProt P28222); experiment: Inhibition of 5-HT1B receptor (unknown origin); conditions: concentration not given here
# Sequence of 5-hydroxytryptamine receptor 1B (Homo sapiens) (P28222 whole entry): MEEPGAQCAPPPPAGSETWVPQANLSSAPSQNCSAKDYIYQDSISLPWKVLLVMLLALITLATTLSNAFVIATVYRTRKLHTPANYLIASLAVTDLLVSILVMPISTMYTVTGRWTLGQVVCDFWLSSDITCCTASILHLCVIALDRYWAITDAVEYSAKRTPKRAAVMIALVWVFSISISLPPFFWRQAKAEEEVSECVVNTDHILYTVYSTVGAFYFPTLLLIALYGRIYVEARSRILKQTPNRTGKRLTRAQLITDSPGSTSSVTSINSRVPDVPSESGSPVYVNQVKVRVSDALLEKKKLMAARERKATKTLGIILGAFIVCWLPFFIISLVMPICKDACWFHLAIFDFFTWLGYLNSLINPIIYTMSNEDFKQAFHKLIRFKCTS
# [14] = molecular target: 5-hydroxytryptamine receptor 1D (Homo sapiens) (UniProt P28221); experiment: Inhibition of 5-HT1D receptor (unknown origin); conditions: concentration not given here
# Sequence of 5-hydroxytryptamine receptor 1D (Homo sapiens) (P28221 whole entry): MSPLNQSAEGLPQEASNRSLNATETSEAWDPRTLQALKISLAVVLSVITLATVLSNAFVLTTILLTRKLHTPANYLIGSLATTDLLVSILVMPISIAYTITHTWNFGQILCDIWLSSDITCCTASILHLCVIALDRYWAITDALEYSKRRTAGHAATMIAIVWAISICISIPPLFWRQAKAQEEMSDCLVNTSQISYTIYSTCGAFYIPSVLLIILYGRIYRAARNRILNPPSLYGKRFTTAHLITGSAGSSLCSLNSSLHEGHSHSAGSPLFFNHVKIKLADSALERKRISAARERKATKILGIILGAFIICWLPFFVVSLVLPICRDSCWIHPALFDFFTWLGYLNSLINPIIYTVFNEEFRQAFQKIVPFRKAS
# [15] = molecular target: 5-hydroxytryptamine receptor 2A (Homo sapiens) (UniProt P28223); experiment: Inhibition of 5-HT2A receptor (unknown origin); conditions: concentration not given here
# Sequence of 5-hydroxytryptamine receptor 2A (Homo sapiens) (P28223 whole entry): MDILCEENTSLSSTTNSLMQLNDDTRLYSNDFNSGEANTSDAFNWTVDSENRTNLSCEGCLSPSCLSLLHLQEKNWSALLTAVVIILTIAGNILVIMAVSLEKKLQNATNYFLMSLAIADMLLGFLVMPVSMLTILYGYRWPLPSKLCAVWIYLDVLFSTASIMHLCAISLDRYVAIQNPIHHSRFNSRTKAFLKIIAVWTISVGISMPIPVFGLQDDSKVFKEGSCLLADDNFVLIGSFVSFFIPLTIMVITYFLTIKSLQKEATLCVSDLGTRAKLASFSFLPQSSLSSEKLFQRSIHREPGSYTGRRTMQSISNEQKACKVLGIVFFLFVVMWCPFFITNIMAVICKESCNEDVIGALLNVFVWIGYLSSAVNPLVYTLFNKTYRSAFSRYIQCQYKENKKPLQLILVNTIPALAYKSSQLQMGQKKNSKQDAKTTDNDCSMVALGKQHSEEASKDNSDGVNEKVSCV
# [16] = molecular target: T3, 5-hydroxytryptamine receptor 2C (Homo sapiens) (UniProt P28335); experiment: Inhibition of 5-HT2C receptor (unknown origin); conditions: concentration not given here
# T3 sequence (whole entry): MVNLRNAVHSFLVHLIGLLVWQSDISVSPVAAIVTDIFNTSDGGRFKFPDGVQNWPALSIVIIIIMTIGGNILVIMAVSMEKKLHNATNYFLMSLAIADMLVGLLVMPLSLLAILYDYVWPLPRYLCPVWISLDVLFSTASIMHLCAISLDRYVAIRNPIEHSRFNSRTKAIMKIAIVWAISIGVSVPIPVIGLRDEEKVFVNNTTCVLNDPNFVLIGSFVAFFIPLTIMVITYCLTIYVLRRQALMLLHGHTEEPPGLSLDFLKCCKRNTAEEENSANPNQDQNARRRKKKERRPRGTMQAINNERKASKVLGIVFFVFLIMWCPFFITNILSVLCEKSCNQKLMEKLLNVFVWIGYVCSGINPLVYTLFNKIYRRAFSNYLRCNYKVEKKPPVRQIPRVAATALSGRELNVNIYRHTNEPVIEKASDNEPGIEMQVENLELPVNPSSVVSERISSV
# [17] = molecular target: Serotonin 3 (5-HT3) receptor (Homo sapiens) (UniProt P46098+A5X5Y0+O95264+Q70Z44+Q8WXA8); experiment: Inhibition of 5-HT3 receptor (unknown origin); assay type: protein-complex assay; conditions: concentration not given here
# [18] = organism: Homo sapiens; experiment: Inhibition of 5-HT6 receptor (unknown origin); conditions: concentration not given here
# [19] = organism: Homo sapiens; experiment: Inhibition of 5-HT7 receptor (unknown origin); conditions: concentration not given here
# [20] = Binding affinity to 5-HT7 receptor (unknown origin) assessed as inhibition constant; design: species or system Homo sapiens
# [21] = system: Mus musculus; experiment: Antidepressant activity in ICR mouse assessed as reduction in immobility time at 0.6 to 80 mg/kg, po for 7 days by forced swimming test; assay type: functional, organism-based; conditions: dose 0.6-80 mg/kg, time 7.0 day
Structure (SMILES),inhibition [1],inhibition [2],half-life [5],microsomal CLint [6],half-life [7],microsomal CLint [8],other results
O=C(c1ccc(F)c(Cl)c1)N1CCC(CNCCc2c[nH]c3ccc(F)cc23)CC1,101%,93%,,,,,
O=C(c1ccc(F)c(Cl)c1)N1CCC(NCCCc2c[nH]c3ccc(F)cc23)CC1,102%,96%,,,,,
Fc1ccc(OCCN2CCC(c3c[nH]c4ccc(F)cc34)CC2)c(-c2ccccc2)c1,,,,,,,IC50 [3]: 0.5 nM; Ki ([4]; read-out: Ki): 0.2 nM
O=C(c1ccc(Cl)cc1)N1CCC(CNCCCc2c[nH]c3ccc(F)cc23)CC1,103%,100%,19.5 min,70.9 µL/min/mg,,,
CN(CCCc1c[nH]c2ccc(F)cc12)CC1CCN(C(=O)c2ccc(F)c(Cl)c2)CC1,102%,94%,,,,,
O=C(c1ccc(Cl)c(Cl)c1)N1CCC(CNCCCc2c[nH]c3ccc(F)cc23)CC1,101%,100%,30.5 min,45.4 µL/min/mg,30.8 min,44.9 µL/min/mg,IC50 [3]: 17 nM; Ki ([4]; read-out: Ki): 0.097 nM
Fc1ccc(N2CCN(CCCc3c[nH]c4ccc(F)cc34)CC2)c(-c2ccccc2)c1,,,,,,,IC50 [3]: 177 nM; Ki ([4]; read-out: Ki): 12 nM
N#Cc1ccc2[nH]cc(CCCCN3CCN(c4ccc5oc(C(N)=O)cc5c4)CC3)c2c1 [VILAZODONE],,,26.9 min,51.6 µL/min/mg,23.1 min,60.6 µL/min/mg,
O=C(c1ccc(F)c(Cl)c1)N1CCC(CNCCCc2c[nH]c3ccc(F)cc23)CC1,101%,99%,26.8 min,51.8 µL/min/mg,61.6 min,22.5 µL/min/mg,Activity [9]: 19%; Activity [10]: 24%; Activity [11]: 34%; Ki [12]: 150 nM; inhibition [13]: < 75%; IC50 [3]: 8.2 nM; Ki ([4]; read-out: Ki): 0.069 nM; inhibition [14]: < 75%; inhibition [15]: < 75%; inhibition [16]: < 75%; inhibition [17]: < 75%; inhibition [18]: 82%; inhibition [19]: 86.5%; Ki [20]: 36 nM; Activity [21]: Active
O=C(c1ccc(F)c(Cl)c1)N1CCC(CNCCCCc2c[nH]c3ccc(F)cc23)CC1,103%,99%,11.7 min,118 µL/min/mg,45 min,30.8 µL/min/mg,
NC(=O)c1cccc(C(=O)N2CCC(CNCCCc3c[nH]c4ccc(F)cc34)CC2)c1,102%,98%,154 min,9 µL/min/mg,277 min,5 µL/min/mg,
O=C(c1ccc(F)cc1)N1CCC(CNCCCc2c[nH]c3ccc(F)cc23)CC1,101%,100%,16.4 min,84.3 µL/min/mg,,,
O=C(c1ccc(F)c(Cl)c1)N1CCC(CNCCCCCc2c[nH]c3ccc(F)cc23)CC1,101%,92%,,,,,
Cc1cc(C(=O)N2CCC(CNCCCc3c[nH]c4ccc(F)cc34)CC2)ccc1F,103%,100%,3.86 min,559 µL/min/mg,,,
Cc1ccc(C(=O)N2CCC(CNCCCc3c[nH]c4ccc(F)cc34)CC2)cc1,99%,99%,4.48 min,310 µL/min/mg,,,
N#Cc1ccc2[nH]cc(CCCNCC3CCN(C(=O)c4ccc(F)c(Cl)c4)CC3)c2c1,103%,100%,12.2 min,113 µL/min/mg,,,
O=C(c1ccc(F)c(Cl)c1)N1CCC(CNCc2cccc(-n3cccn3)n2)CC1,,,,,,,Ki [4]: 1.54 nM

# Continued, in another order:
inhibition [1],inhibition [2],half-life [5],microsomal CLint [6],half-life [7],microsomal CLint [8],Structure (SMILES),other results
101%,86%,,,,,CCCN(CCCc1c[nH]c2ccc(F)cc12)CC1CCN(C(=O)c2ccc(F)c(Cl)c2)CC1,
103%,99%,19.5 min,71.2 µL/min/mg,,,O=C(c1ccc(F)c(F)c1)N1CCC(CNCCCc2c[nH]c3ccc(F)cc23)CC1,
100%,98%,330 min,4.2 µL/min/mg,102 min,13.6 µL/min/mg,NC(=O)c1ccc(C(=O)N2CCC(CNCCCc3c[nH]c4ccc(F)cc34)CC2)cc1,
103%,101%,9.07 min,153 µL/min/mg,27.8 min,49.8 µL/min/mg,O=C(c1cccc(Cl)c1)N1CCC(CNCCCc2c[nH]c3ccc(F)cc23)CC1,
102%,98%,10 min,138 µL/min/mg,13.2 min,105 µL/min/mg,NC(=O)c1ccccc1C(=O)N1CCC(CNCCCc2c[nH]c3ccc(F)cc23)CC1,
